Measurements reported in PubChem BioAssay (NCI).
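Five compound concentrations were applied to cells in 96-well plates for 48 hours; endpoints were derived by simple linear interpolation of the resulting dose-response curve. The concentration for 50% growth inhibition is given as GI50. At the TGI there is no net growth.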

How the values were obtained:
Test in all cases: NCI anticancer screen, dose series, 48 h
SF-539 CNS = system: SF-539 CNS
SN12C renal = system: SN12C renal
HL-60(TB) leukemia = system: HL-60(TB) leukemia
EKVX NSCLC = system: EKVX NSCLC
CCRF-CEM leukemia = system: CCRF-CEM leukemia
MDA-MB-231 breast = system: MDA-MB-231 breast
SNB-75 CNS = system: SNB-75 CNS
COLO 205 colon = system: COLO 205 colon

Row | Structure (SMILES) | GI50 (SF-539 CNS) | TGI (SF-539 CNS) | GI50 (SN12C renal) | TGI (SN12C renal) | GI50 (HL-60(TB) leukemia) | TGI (HL-60(TB) leukemia) | GI50 (EKVX NSCLC) | TGI (EKVX NSCLC) | GI50 (CCRF-CEM leukemia) | TGI (CCRF-CEM leukemia) | GI50 (MDA-MB-231 breast) | TGI (MDA-MB-231 breast) | GI50 (SNB-75 CNS) | TGI (SNB-75 CNS) | GI50 (COLO 205 colon) | TGI (COLO 205 colon)
1 | CCCCCCCCCCCC1=NC(C)(C)CN1C(C)C | 2.14 µM | 4.41 µM | 4.04 µM | 16.7 µM | 2.14 µM | 4.55 µM | 6.55 µM | 21.1 µM | 2.7 µM | 10.1 µM | 3.67 µM | 14 µM | 6.04 µM | 19.2 µM | 1.77 µM | 3.15 µM
2 | CCn1c(-c2nonc2N)nc2cnc(Oc3cccc(NC(=O)c4ccc(OCCN5CCOCC5)cc4)c3)cc21 | 0.929 µM | > 25 µM | 6.26 µM | > 25 µM | 10.3 µM | > 25 µM | 0.752 µM | > 25 µM | 0.671 µM | > 25 µM | 1.65 µM | > 25 µM | 0.0594 µM | 7.65 µM | 3.34 µM | > 25 µM
3 | COc1cccc2c1C(=O)c1c(O)c3c(c(O)c1C2=O)C[C@@](O)(/C(C)=N/NC(=O)c1cccc([N+](=O)[O-])c1)C[C@@H]3OC1CC(N)C(O)C(C)O1 (some centres not stated) | 0.21 µM | 1.22 µM | 0.233 µM | 16.9 µM | 0.146 µM | 0.923 µM | 0.495 µM | 4.66 µM | 0.167 µM | 4.33 µM | 1.59 µM | 21.3 µM | 0.22 µM | 1.5 µM | 0.208 µM | 1.5 µM
4 | COc1cccc(C2CC(C)(O)Oc3cc4c(cc32)OCO4)c1 (configuration not stated) | – | – | – | > 100 µM | – | > 100 µM | – | > 100 µM | – | > 100 µM | – | 96.2 µM | – | 61.7 µM | – | 43.1 µM
5 | COc1ccc2c(c1)c(-c1ccc(-c3cn(C)c4ccc(OC)cc34)s1)cn2C | > 100 µM | > 100 µM | > 100 µM | > 100 µM | > 100 µM | > 100 µM | > 100 µM | > 100 µM | – | – | > 100 µM | > 100 µM | 49.4 µM | > 100 µM | > 100 µM | > 100 µM
6 | C=CC(=O)N1CCN([C@@H](CC2CC2)c2ccc([C@H](C)Nc3ncc4c(n3)N(CC)C(=O)OC4)cc2)CC1 | 11.7 µM | 24.3 µM | 13.7 µM | 31.8 µM | 2.28 µM | 12.7 µM | 14.1 µM | 27.6 µM | 4.29 µM | 25.2 µM | 12 µM | 27.4 µM | 2.06 µM | 16.7 µM | 16.9 µM | 36 µM
7 | [Cu].c1ccc2c(c1)C1=NC2=NC2=NC(=NC3=NC(=NC4=NC(=N1)c1ccccc14)c1ccccc13)c1ccccc12 | – | – | > 100 µM | > 100 µM | – | – | > 100 µM | > 100 µM | – | – | > 100 µM | > 100 µM | > 100 µM | > 100 µM | – | –
8 | Clc1ccc(NCNC2Nc3ccccc3N2)cc1Cl | – | > 100 µM | – | > 100 µM | – | > 100 µM | – | > 100 µM | – | > 100 µM | – | > 100 µM | – | > 100 µM | – | > 100 µM
9 | CCN(CC)CCN1C(=O)C2C3C(C)=CC(OC(C)=O)(CC3C)C2C1=O (configuration not stated) | > 100 µM | > 100 µM | > 100 µM | > 100 µM | > 100 µM | > 100 µM | > 100 µM | > 100 µM | > 100 µM | > 100 µM | > 100 µM | > 100 µM | > 100 µM | > 100 µM | > 100 µM | > 100 µM
10 | Cc1cc[c]([Sb]2[O]C(CO)C(C(O)C(O)C(=O)O)[O]2)cc1 (configuration not stated) | – | – | 51.9 µM | > 100 µM | – | – | 41 µM | > 100 µM | > 100 µM | > 100 µM | 78 µM | > 100 µM | 23 µM | 76.8 µM | – | –
11 | C=C1C(=O)O[C@@H]2C[C@@]3(C)CCC[C@H](C)C3=C[C@H]12 (tested in a mixture with another compound) | – | 4.85 µM | – | 3.44 µM | – | – | – | 15 µM | – | > 100 µM | – | 6.72 µM | – | 5.6 µM | – | 3.18 µM
12 | O=c1[nH]c(=O)n(Cc2ccc(C34CC5CC(CC(C5)C3)C4)c(O)c2)cc1F | 14.7 µM | 30.1 µM | 13.5 µM | 26.8 µM | 3.05 µM | 16 µM | 16.4 µM | 35.7 µM | – | – | 14.3 µM | 28.9 µM | 12.8 µM | 32 µM | 17.2 µM | 37.9 µM
13 | O=C(O)c1c2c(c(O)c3c1CN(C1CCCCC1)CO3)OCN(C1CCCCC1)C2 | – | > 100 µM | – | 72.9 µM | – | – | – | > 100 µM | – | 55.7 µM | – | > 100 µM | – | > 100 µM | – | > 100 µM
14 | CCCCCCCCCCCC(c1ccccc1)[N+](C)(C)C (configuration not stated) | – | – | 1.59 µM | 3.77 µM | 0.291 µM | 1.47 µM | 1.45 µM | 4.63 µM | 1.41 µM | 4.12 µM | 1.68 µM | 4.25 µM | 1.15 µM | 2.55 µM | 0.825 µM | 2.2 µM
15 | COc1ccc(-c2cc(=O)c3c(C)ccnc3[nH]2)cc1 | – | 72.2 µM | – | > 100 µM | 4.37 µM | 17.3 µM | – | > 100 µM | – | 44.8 µM | – | > 100 µM | – | – | – | 16.4 µM
16 | Cc1ccc(/C=C/C(=O)c2ccc(F)cc2)s1 | 3.56 µM | 10.2 µM | 6.47 µM | 19.8 µM | 2.26 µM | 7.22 µM | 5.83 µM | 20.3 µM | – | – | 10.2 µM | 24 µM | 13.4 µM | 26.5 µM | 6.07 µM | 19.9 µM
17 | CN1CCN(c2cc(F)c(NC3=C(Cl)C(=O)c4ncccc4C3=O)c(F)c2)CC1 | 1.52 µM | 2.91 µM | 1.7 µM | 3.29 µM | 1.65 µM | 5.46 µM | 1.7 µM | 3.19 µM | – | – | 1.94 µM | 3.87 µM | 1.37 µM | 5.61 µM | 2 µM | 4.06 µM
18 | O=C(O)C1CCCN1 (configuration not stated) | – | > 100 µM | – | > 100 µM | – | > 100 µM | – | > 100 µM | – | – | – | > 100 µM | – | > 100 µM | – | > 100 µM
